For three compounds, mortality, EC50 and IC50 results are on record in patent US20240382470A1, “Irak Inhibitor for Treating Cytokine Release-Related Conditions Associated With Infection by a Respiratory Virus” (Rigel Pharmaceuticals, Inc., priority 2021, published 2024).

The structures appear in SMILES notation. Counter-ions that a name gives are not always drawn.

Series [1] has as its system Shp1fl/fl RosaERT2-Cre/+ mouse model of lung inflammation. Particulars: throughout the 21 days, control chow or Compound VII-49 chow.
Procedure: ARDS-like disease model is produced by crossing Shp1^fl/fl to Shp1^fl/flRosa^ERT2-CRE/+ mice. Rosa^ERT2-CRE/+ is expressed under a Tamoxifen inducible promoter. When Tamoxifen is administered to Shp1^fl/flRosa^ERT2-CRE/+ mice CRE recombinase is activated resulting in deletion of Shp1 in hematopoietic cells.
Tamoxifen is administered at day 1 for a total of 4 days wherein Tamoxifen is administered twice a day at 200 mg/kg/bid (400 mg/kg/day). […] Mice were euthanized on day 21.
In an effort to generate an ARDS-like disease model, Shp1^fl/fl Rosa^ERT2-CRE/+ obtained from Jackson Laboratories were crossed to Shp1^fl/fl mice. Rosa^ERT2-CRE/+ is under the control of a Tamoxifen inducible promoter. Shp1^fl/fl Rosa^ERT2-CRE/+ mice were administered Tamoxifen to activate CRE recombinase resulting in deletion of Shp1 in all cells that normally express Shp1 (FIG. 1).
Mice were euthanized on day 21.
In series [2] the test system is Dendritic cells + T cells + CD3/CD28 beads. The series is described as follows: CRS assay, IL6 ELISA of supernatant. The class given is cell-based. Particulars: Homo sapiens, read-out: Dendritic cells + T cells + CD3/CD28 beads IL6* ELISA EC50 (μM). In general terms: ELISA stands for enzyme-linked immunosorbent assay.
For series [3] the test system is unchanged. The series can be described thus: CRS assay, IL2 ELISA of supernatant. In kind it is cell-based. The note with it: Homo sapiens; 1 hour compound pre-incubation, overnight incubation; IL-2 only produced by activated T cells.
Series [4] deals with human ACE2 (Homo sapiens, UniProt Q9BYF1). Particulars: cited from earlier work.
Sequence of human ACE2 (Q9BYF1 18-805): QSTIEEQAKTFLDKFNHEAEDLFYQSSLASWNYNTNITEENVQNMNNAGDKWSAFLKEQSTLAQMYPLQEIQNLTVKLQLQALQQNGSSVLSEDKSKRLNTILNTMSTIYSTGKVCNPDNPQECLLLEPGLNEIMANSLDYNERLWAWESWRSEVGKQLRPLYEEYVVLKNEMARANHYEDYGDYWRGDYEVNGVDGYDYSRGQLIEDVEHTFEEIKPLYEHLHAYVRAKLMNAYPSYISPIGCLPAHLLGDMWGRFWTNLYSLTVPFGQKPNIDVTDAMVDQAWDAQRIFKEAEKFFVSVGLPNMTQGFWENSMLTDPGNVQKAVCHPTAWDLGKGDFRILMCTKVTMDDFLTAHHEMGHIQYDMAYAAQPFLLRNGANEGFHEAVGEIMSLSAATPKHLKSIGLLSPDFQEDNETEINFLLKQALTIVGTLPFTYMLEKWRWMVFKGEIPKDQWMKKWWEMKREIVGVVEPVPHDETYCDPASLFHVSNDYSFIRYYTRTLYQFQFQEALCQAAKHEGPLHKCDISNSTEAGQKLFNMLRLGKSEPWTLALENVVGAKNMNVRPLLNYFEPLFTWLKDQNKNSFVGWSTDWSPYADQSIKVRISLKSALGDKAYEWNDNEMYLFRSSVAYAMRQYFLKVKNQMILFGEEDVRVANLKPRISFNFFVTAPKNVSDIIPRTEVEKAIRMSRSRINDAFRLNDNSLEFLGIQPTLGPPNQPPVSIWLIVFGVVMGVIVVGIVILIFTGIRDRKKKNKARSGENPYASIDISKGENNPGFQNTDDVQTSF

`CCO[C@H]1CC[C@H](n2cc(NC(=O)c3csc(-c4cnn(C(C)OP(=O)(O)O)c4)n3)c(-c3nc(F)ccc3F)n2)CC1` (stereo partly shown) [VII-49, 1-(4-(4-((3-(3,6-difluoropyridin-2-yl)-1-((1r,4r)-4-ethoxycyclohexyl)-1H-pyrazol-4-yl)carbamoyl)thiazol-2-yl)-1H-pyrazol-1-yl)ethyl dihydrogen phosphate tris salt]: the mortality entry in series [1] was “no mice died”.
On to `CCO[C@H]1CC[C@H](n2cc(NC(=O)c3csc(-c4cn[nH]c4)n3)c(-c3nc(F)ccc3F)n2)CC1` [VI-176, N-(3-(3,6-difluoropyridin-2-yl)-1-((1r,4r)-4-ethoxycyclohexyl)-1H-pyrazol-4-yl)-2-(1H-pyrazol-4-yl)thiazole-4-carboxamide], for which the EC50 amounted to 0.195 µM in series [2] and 6900 nM in series [3].
Usually IC50 stands for the concentration at which inhibition is half-maximal. `N[C@@H](CCN[C@@H](CCN1CC[C@H]1C(=O)O)C(=O)O)C(=O)O` [nicotianamine]: in series [4], the concentration for half-maximal inhibition (IC50) was 84 nM.
